Laboratory results taken from ChEMBL document CHEMBL5335806, “Cytotoxic leuconoxine-type diazaspiroindole alkaloids isolated from Cryptolepis dubia” (Bioorg Med Chem Lett, 2024).
Converted amounts (≈) assume the structure as drawn.

Tests used:
HT-29 = test: Cytotoxicity against human HT-29 cells assessed as inhibition of cell viability incubated for 72 hrs; type: functional, cell-based; settings: HT-29, 72 h
MDA-MB-435 = test: Cytotoxicity against human MDA-MB-435 cells assessed as inhibition of cell viability incubated for 72 hrs; type: functional, cell-based; settings: MDA-MB-435, 72 h
OVCAR-3 = test: Cytotoxicity against human OVCAR-3 cells assessed as inhibition of cell viability incubated for 72 hrs; type: functional, cell-based; settings: OVCAR-3, 72 h
MDA-MB-231 = test: Cytotoxicity against human MDA-MB-231 cells assessed as inhibition of cell viability incubated for 72 hrs; type: functional, cell-based; settings: MDA-MB-231, 72 h
[1] = test system: Staphylococcus epidermidis; test: Antibacterial activity against Staphylococcus epidermidis by a two-fold serial dilution method; type: functional
Escherichia coli = test: Antibacterial activity against Escherichia coli TISTR 780 by a two-fold serial dilution method; type: functional
Micrococcus luteus = test: Antibacterial activity against Micrococcus luteus by a two-fold serial dilution method; type: functional
Salmonella typhimurium = test: Antibacterial activity against Salmonella typhimurium TISTR 291 by a two-fold serial dilution method; type: functional, Salmonella enterica subsp. enterica serovar Typhimurium; settings: Salmonella enterica

MIC [1] [µg/mL]	MIC (Escherichia coli) [µg/mL]	MIC (Micrococcus luteus) [µg/mL]	MIC (Salmonella typhimurium) [µg/mL]	SMILES	IC50 (HT-29) [µM]	IC50 (MDA-MB-435) [µM]	IC50 (OVCAR-3) [µM]	IC50 (MDA-MB-231) [µM]
–	–	–	–	CC[C@@]12CCCN3C(=O)C(Cl)=C4c5ccccc5N(C(=O)CC1)[C@]432	> 10	> 10	5.9	> 10
64 (≈ 208 µM)	64 (≈ 208 µM)	64 (≈ 208 µM)	64 (≈ 208 µM)	CC[C@@]12CCCN3C(=O)C=C4c5ccccc5N(C(=O)CC1)[C@]432	> 10	> 10	9.1	> 10
